Measurements: US9708321B2, “Spiro-quinazolinone derivatives and their use as positive allosteric modulators of mGluR4” (Merck Patent GmbH, priority 2013, dated 2017)

The molecules below were run against T1, hmGluR4 (Homo sapiens, UniProt Q14833) (assay: HEK-293 mGluR4 cells cAMP assay with EC20 L-Glutamate (HTRF)). Conditions: positive allosteric activity at EC20 L-Glutamate, 10 μM Forskolin, HEK293T mGluR4 cells, cAMP HTRF; read-out: hrmGluR4/HEK293T-hmGluR4 (EC50).
T1 construct: host or cells: HEK293T
T1 sequence (Q14833 33-912): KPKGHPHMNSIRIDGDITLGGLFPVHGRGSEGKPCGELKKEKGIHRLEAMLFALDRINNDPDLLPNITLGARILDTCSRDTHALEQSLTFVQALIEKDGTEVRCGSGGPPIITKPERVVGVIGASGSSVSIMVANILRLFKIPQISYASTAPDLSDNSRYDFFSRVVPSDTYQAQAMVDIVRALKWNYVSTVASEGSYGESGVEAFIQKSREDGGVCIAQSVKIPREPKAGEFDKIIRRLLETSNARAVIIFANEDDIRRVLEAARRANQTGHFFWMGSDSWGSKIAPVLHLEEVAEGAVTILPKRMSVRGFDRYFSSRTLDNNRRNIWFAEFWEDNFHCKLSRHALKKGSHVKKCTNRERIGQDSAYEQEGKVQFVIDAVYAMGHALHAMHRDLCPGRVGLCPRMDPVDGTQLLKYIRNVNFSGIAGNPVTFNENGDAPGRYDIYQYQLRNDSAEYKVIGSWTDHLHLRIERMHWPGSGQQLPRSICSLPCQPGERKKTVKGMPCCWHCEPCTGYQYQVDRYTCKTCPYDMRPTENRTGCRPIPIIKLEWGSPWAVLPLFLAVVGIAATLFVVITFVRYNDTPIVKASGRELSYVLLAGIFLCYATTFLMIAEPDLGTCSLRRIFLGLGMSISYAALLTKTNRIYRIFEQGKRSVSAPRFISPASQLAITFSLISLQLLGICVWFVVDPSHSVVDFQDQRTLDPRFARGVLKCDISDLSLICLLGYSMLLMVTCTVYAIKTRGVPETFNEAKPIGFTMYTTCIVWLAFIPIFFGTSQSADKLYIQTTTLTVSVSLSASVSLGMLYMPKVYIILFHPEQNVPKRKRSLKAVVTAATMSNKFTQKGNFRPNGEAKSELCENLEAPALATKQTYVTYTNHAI
Type: cell-based
Protocol: II. Biological Assays HEK-293 mGluR4 Cells cAMP Assay with EC20 L-Glutamate
Using mGluR4 suspension cell format, 10 μM Forskolin (final conc.) used to induce the production of cAMP.
Test the positive allosteric activity of the compounds of the invention at EC20 (2.3 μM for mGluR4 and 4.3 μM for mGluR6) L-Glutamate,
cAMP dymanic2 kit is intended for the direct quantitative determination of cAMP and its principle is based on HTRF technology.
• Cells: HEK293T mGluR4 cells from Multispan, cat# C1191a lot# C1191a-040910 • Culture Media: DMEM+GlutaMAX1+10% dialyzed FBS, 100 mM Sodium Pyruvate, 1 ug/ml puromycin. • Glutamine Starvation Media: DMEM without GlutaMax for plating the cells (glutamine starvation overnight). DMEM high Glucose, without phenol red, glutamine, or sodium pyruvate+10% dialyzed FBS, 100 mM Sodium Pyruvate, 1 ug/ml puromycin, 10 mM Hepes. • Hanks' balanced Salt Solution, HBSS from Invitrogen • Greiner 384 well white low volume high base plate (784075) • cAMP dynamic2 from Cisbio Bioassays • Glutamate: L-Glutamaic acid, monosodium salt, Monohydrate, 98%, from Sigma-Aldrich • Cell Preparation: split cells at 80%-90% confluence. The following day, rinse the cells with DMEM without GlutaMax and change to Glutamine Starvation Media. Incubate overnight. Assay: • Prepare compound plate: Perform compound serial dilution (uses Matrix 4341 plate), using the Bravo liquid handling platform protocol (compound serial dilution) which adds DMSO to columns 1-24 (except cols. 3 and 13). Serial dilute compounds located in columns 3 and 13 at a 1:3 ratio; 10 points (10 ul of 3 mM compound into 20 ul DMSO). Use the Bravo liquid handling platform to transfer 1 ul from the serial dilution plate into Matrix 4314 plate to create stamp plates. Prepare Compound Dilution Buffer: • Dilute 20 mM Forskolin (in DMSO) stock solution in HBSS buffer to make a 20 uM solution (forskolin buffer; 2× solution). To the forskolin buffer, add glutamate to a concentration of 8 uM (compound dilution buffer; 2× EC20 glutamate and forskolin). • Using a multidrop, add 50 ul/well of compound dilution buffer to columns 1-22 of the 2 ul compound stamp plate. Columns 23 and 24 receive forskolin buffer containing 400 uM glutamate (EC100 glutamate; 2× solution). Columns 1 and 2 receive compound dilution buffer containing EC20 glutamate, which is the basal control. • Add a glutamate dose response to row P of compound plate. Prepare the dose response by serial diluting glutamate at a 1:3 ratio in forskolin buffer starting at 2 mM glutamate (2×). Dilute the glutamate 9 times and transfer to compound plate. Prepare Cell Plates: • Harvest cells: Rinse cells with pre-warmed HBSS-10 mM HEPES (without Ca Mg) and dissociate the cells from the flask with versene. Centrifuge the cells, remove the supernatant and suspend in pre-warmed HBSS+10 mM Hepes. Count the cells and centrifuge. Remove the supernatant and suspend the cells in HBSS+Hepes (with Ca Mg) at a density of 400,000 cells/ml. Perform Assay: • Dispense 5 ul from the diluted compound plate into Greiner low volume cell plate using the Bravo liquid handling platform. Using a Multidrop with the small tubing cassette, dispense 5 ul of cells (2000 cells/well) onto the compounds contained in the low volume plates. Incubate the cells at 37° C., 5% CO2 for 30 minutes in the incubator. Assay for cAMP: • Prepare cAMP-d2 and anti-cAMP-Crytate according to the instructions for the two step assay (see Cisbio manual) and add 10 ul of the mixed reagent to each well of the assay plate using the Multidrop. Incubate at room temperature for 60 minutes and read on the Envision plate reader using the mGluR low volume cAMP HTRF 384 well protocol.

| Compound | EC50 |
| --- | --- |
| O=C1c2ccc(Br)cc2NC2(CCN(Cc3ccc(F)c(F)c3)CC2)N1c1ccc(Cl)cc1 [Compound 25, 7′-Bromo-3′-(4-chlorophenyl)-1-(3,4-difluorobenzyl)-1′H-spiro[piperidine-4,2′-quinazolin]-4′(3′H)-one] | < 1 µM |
| CC(c1ccccc1)N1CCC2(CC1)Nc1cc(Br)ccc1C(=O)N2c1ccc(Cl)cc1 (centres unmarked) [Compound 26, 7′-Bromo-3′-(4-chlorophenyl)-1-(1-phenylethyl)-1′H-spiro[piperidine-4,2′-quinazolin]-4′(3′H)-one] | < 1 µM |
| O=C1c2ccc(Br)cc2NC2(CCN(Cc3cccc4cnccc34)CC2)N1c1ccc(OC(F)(F)F)cc1 [Compound 27, 7′-Bromo-1-(isoquinolin-5-ylmethyl)-3′-(4-(trifluoromethoxy)phenyl)-1′H-spiro[piperidine-4,2′-quinazolin]-4′(3′H)-one] | < 1 µM |
| O=C1c2ccc(Br)cc2NC2(CCN(Cc3ccccc3)CC2)N1c1ccc(OC(F)(F)F)cc1 [Compound 28, 1-Benzyl-7′-bromo-3′-(4-(trifluoromethoxy)phenyl)-1′H-spiro[piperidine-4,2′-quinazolin]-4′(3′H)-one] | < 1 µM |
| CCOC(=O)c1ccc2c(c1)NC1(CCN(Cc3ccc(F)c(F)c3)CC1)N(c1ccc(OC(F)(F)F)cc1)C2=O [Compound 29, Ethyl 1-(3,4-difluorobenzyl)-4′-oxo-3′-(4-(trifluoromethoxy)phenyl)-3′,4′-dihydro-1′H-spiro[piperidine-4,2′-quinazoline]-7′-carboxylate] | < 1 µM |
| CCOC(=O)c1ccc2c(c1)NC1(CN(C(C)c3ccccc3Cl)C1)N(c1ccc(OC(F)(F)F)cc1)C2=O (centres unmarked) [Compound 30, Ethyl 1-(1-(2-chlorophenyl)ethyl)-4′-oxo-3′-(4-(trifluoromethoxy)phenyl)-3′,4′-dihydro-1′H-spiro[azetidine-3,2′-quinazoline]-7′-carboxylate] | < 1 µM |
| CC(C)OC(=O)c1ccc2c(c1)NC1(CCN(Cc3ccc(F)c(F)c3)CC1)N(c1ccc(OC(F)(F)F)cc1)C2=O [Compound 31, Isopropyl 1-(3,4-difluorobenzyl)-4′-oxo-3′-(4-(trifluoromethoxy)phenyl)-3′,4′-dihydro-1′H-spiro[piperidine-4,2′-quinazoline]-7′-carboxylate] | < 1 µM |
| O=C1c2ccc(Br)cc2NC2(CCN(Cc3ccc(F)c(F)c3)CC2)N1c1ccc(OC(F)(F)F)cc1 [Compound 32, 7′-Bromo-1-(3,4-difluorobenzyl)-3′-(4-(trifluoromethoxy)phenyl)-1′H-spiro[piperidine-4,2′-quinazolin]-4′(3′H)-one] | < 1 µM |
| CCC(c1ccc(F)c(F)c1)N1CCC2(CC1)Nc1cc(Br)ccc1C(=O)N2c1ccc(Cl)cc1 (centres unmarked) [Compound 33, 7′-Bromo-3′-(4-chlorophenyl)-1-(1-(3,4-difluorophenyl)propyl)-1′H-spiro[piperidine-4,2′-quinazolin]-4′(3′H)-one] | < 1 µM |
| CCOC(=O)c1ccc2c(c1)NC1(CN(C(c3ccc(F)c(F)c3)C(F)(F)F)C1)N(c1ccc(OC(F)(F)F)cc1)C2=O (centres unmarked) [Compound 34, Ethyl 1-(1-(3,4-difluorophenyl)-2,2,2-trifluoroethyl)-4′-oxo-3′-(4-(trifluoromethoxy)phenyl)-3′,4′-dihydro-1′H-spiro[azetidine-3,2′-quinazoline]-7′-carboxylate] | < 1 µM |
| COC(=O)c1ccc2c(c1)NC1(CN(Cc3ccccc3)C1)N(c1ccc(OC)cc1)C2=O [Compound 35, Methyl 1-benzyl-3′-(4-methoxyphenyl)-4′-oxo-3′,4′-dihydro-1′H-spiro[azetidine-3,2′-quinazoline]-7′-carboxylate] | < 1 µM |
| COC(=O)c1ccc2c(c1)NC1(CCN(Cc3ccc(F)c(F)c3)CC1)N(c1ccc(OC(F)(F)F)cc1)C2=O [Compound 36, Methyl 1-(3,4-difluorobenzyl)-4′-oxo-3′-(4-(trifluoromethoxy)phenyl)-3′,4′-dihydro-1′H-spiro[piperidine-4,2′-quinazoline]-7′-carboxylate] | < 1 µM |
| COCCOc1ccc(N2C(=O)c3ccc(Br)cc3NC23CCN(Cc2ccc(F)c(F)c2)CC3)cc1 [Compound 37, 7′-bromo-1-(3,4-difluorobenzyl)-3′-(4-(2-methoxyethoxyl)phenyl)-1′H-spiro[piperidine-4,2′-quinazolin]-4′(3′H)-one] | < 1 µM |
| COc1ccc(N2C(=O)c3ccc(Cl)cc3NC23CCN(Cc2cccc(Cl)c2)CC3)cc1 [Compound 38, 7′-Chloro-1-(3-chlorobenzyl)-3′-(4-methoxyphenyl)-1′H-spiro[piperidine-4,2′-quinazolin]-4′(3′H)-one] | < 1 µM |
| COc1ccc(N2C(=O)c3ccc(OC)cc3NC23CCN(Cc2ccc(F)c(F)c2)CC3)cc1 [Compound 39, 1-(3,4-Difluorobenzyl)-7′-methoxy-3′-(4-methoxyphenyl)-1′H-spiro[piperidine-4,2′-quinazolin]-4′(3′H)-one] | < 1 µM |
| COc1ccc(N2C(=O)c3ccc(-c4cccnc4)cc3NC23CCN(Cc2ccc(F)c(F)c2)CC3)cc1 [Compound 40, 1-(3,4-Difluorobenzyl)-3′-(4-methoxyphenyl)-7′-(pyridin-3-yl)-1′H-spiro[piperidine-4,2′-quinazolin]-4′(3′H)-one] | < 1 µM |
| CSc1ccc(N2C(=O)c3ccc(-c4ccco4)cc3NC23CCN(Cc2ccc(F)c(F)c2)CC3)cc1 [Compound 41, 1-(3,4-Difluorobenzyl)-7′-(furan-2-yl)-3′-(4-(methylthio)phenyl)-1′H-spiro[piperidine-4,2′-quinazolin]-4′(3′H)-one] | < 1 µM |
| N#Cc1cccc(CN2CCC3(CC2)Nc2cc(C(F)(F)F)ccc2C(=O)N3c2ccc(OC(F)(F)F)cc2)c1 [Compound 42, 3-((4′-Oxo-3′-(4-(trifluoromethoxy)phenyl)-7′-(trifluoromethyl)-3′,4′-dihydro-1′H-spiro[piperidine-4,2′-quinazolin]-1-yl)methyl)benzonitrile] | < 1 µM |
| O=C1c2ccc(Br)cc2NC2(CCN(C(c3cccc(F)c3)C(F)(F)F)CC2)N1c1ccc(OC(F)(F)F)cc1 (centres unmarked) [Compound 43, 7′-Bromo-1-(2,2,2-trifluoro-1-(3-fluorophenyl)ethyl)-3′-(4-(trifluoromethoxy)phenyl)-1′H-spiro[piperidine-4,2′-quinazolin]-4′(3′H)-one] | < 1 µM |
| COc1ccc(N2C(=O)c3ccccc3NC23CCC(Nc2ccccc2)CC3)cc1 (centres unmarked) [Compound 44, 3′-(4-Methoxyphenyl)-4-(phenylamino)-1′H-spiro[cyclohexane-1,2′-quinazolin]-4′(3′H)-one] | < 1 µM |
| COc1ccc(N2C(=O)c3ccc(-c4cncs4)cc3NC23CCN(Cc2ccc(F)c(F)c2)CC3)cc1 [Compound 45, 1-(3,4-Difluorobenzyl)-3′-(4-methoxyphenyl)-7′-(thiazol-5-yl)-1′H-spiro[piperidine-4,2′-quinazolin]-4′(3′H)-one] | < 1 µM |
| O=C1c2ccc(Br)cc2NC2(CCN(Cc3ccccc3OC(F)(F)F)CC2)N1c1ccc(OC(F)(F)F)cc1 [Compound 46, 7′-Bromo-1-(2-(trifluoromethoxy)benzyl)-3′-(4-(trifluoromethoxy)phenyl)-1′H-spiro[piperidine-4,2′-quinazolin]-4′(3′H)-one] | < 1 µM |
| O=C1c2ccc(Br)cc2NC2(CCN(Cc3ccnc4ccccc34)CC2)N1c1ccc(OC(F)(F)F)cc1 [Compound 47, 7′-Bromo-1-(quinolin-4-ylmethyl)-3′-(4-(trifluoromethoxy)phenyl)-1′H-spiro[piperidine-4,2′-quinazolin]-4′(3′H)-on] | < 1 µM |
